Assay results from paper PMC4854315, “Discovery of a novel allosteric inhibitor-binding site in ERK5: comparison with the canonical kinase hinge ATP-binding site” (Acta Crystallographica. Section D, Structural Biology, 2016).

Assays:
Test in all cases: Z'-LYTE kinase panel
Format in all cases: biochemical
ACVR1B (ALK4) = biological target: T1, ACVR1B (ALK4) (Homo sapiens, UniProt P36896)
T1 construct: purchased ThermoFisher (SelectScreen, Z'-LYTE)
T1 sequence (P36896 24-505): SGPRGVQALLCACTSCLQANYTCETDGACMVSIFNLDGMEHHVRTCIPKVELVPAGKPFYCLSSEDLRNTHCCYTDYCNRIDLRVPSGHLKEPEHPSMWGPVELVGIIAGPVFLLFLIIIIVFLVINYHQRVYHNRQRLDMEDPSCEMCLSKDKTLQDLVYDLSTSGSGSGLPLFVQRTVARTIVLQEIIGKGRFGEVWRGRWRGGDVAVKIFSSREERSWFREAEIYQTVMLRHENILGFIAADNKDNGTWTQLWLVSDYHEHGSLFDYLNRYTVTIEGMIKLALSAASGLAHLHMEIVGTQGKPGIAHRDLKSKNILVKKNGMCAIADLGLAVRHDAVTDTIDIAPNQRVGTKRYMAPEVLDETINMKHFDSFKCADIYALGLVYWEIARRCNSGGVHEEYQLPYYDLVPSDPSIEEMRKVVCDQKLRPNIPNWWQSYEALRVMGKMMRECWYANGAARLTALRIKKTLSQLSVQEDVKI
Summary of the method: (§1)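 Standard Z′-LYTE protocol applied. Compound fixed at 10 µM. Output: % inhibition. Panel size 225 kinases.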

MATK (HYL) = biological target: T2, MATK (HYL) (Homo sapiens, UniProt P42679)
T2 construct: purchased ThermoFisher (SelectScreen, Z'-LYTE)
T2 sequence (P42679 1-507): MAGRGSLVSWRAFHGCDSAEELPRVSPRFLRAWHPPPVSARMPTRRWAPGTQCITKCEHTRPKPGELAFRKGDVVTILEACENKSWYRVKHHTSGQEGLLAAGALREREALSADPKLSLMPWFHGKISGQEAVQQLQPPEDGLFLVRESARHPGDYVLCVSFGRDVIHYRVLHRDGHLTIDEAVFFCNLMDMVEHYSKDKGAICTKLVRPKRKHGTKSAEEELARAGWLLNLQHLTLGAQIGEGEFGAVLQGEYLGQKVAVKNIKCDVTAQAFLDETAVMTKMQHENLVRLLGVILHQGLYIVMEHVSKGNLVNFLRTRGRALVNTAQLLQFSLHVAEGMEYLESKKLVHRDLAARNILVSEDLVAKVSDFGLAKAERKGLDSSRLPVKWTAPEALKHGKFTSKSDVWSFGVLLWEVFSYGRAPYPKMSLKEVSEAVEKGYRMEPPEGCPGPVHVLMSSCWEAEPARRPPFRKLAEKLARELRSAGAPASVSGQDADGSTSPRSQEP
Summary of the method: as §1

STK23 (MSSK1) = biological target: T3, STK23 (MSSK1) (Homo sapiens, UniProt Q9UPE1)
T3 construct: purchased ThermoFisher (SelectScreen, Z'-LYTE)
Summary of the method: as §1

CHEK1 (CHK1) = biological target: T4, CHEK1 (CHK1) (Homo sapiens, UniProt O14757)
T4 construct: purchased ThermoFisher (SelectScreen, Z'-LYTE)
T4 sequence (O14757 1-476): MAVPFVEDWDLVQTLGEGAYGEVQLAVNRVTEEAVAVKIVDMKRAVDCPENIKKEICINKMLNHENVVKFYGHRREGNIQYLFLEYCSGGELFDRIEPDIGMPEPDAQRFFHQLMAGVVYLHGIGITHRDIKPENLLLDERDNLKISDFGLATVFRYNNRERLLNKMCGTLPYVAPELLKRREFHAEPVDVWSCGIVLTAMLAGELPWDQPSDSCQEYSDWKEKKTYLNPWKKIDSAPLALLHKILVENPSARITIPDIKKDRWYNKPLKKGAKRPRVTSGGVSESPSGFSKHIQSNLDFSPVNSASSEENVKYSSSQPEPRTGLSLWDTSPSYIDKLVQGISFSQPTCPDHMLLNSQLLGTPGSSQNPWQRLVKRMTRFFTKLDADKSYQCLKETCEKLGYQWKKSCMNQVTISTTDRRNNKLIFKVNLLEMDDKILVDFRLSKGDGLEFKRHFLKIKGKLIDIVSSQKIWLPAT
Summary of the method: as §1

PDGFRB (PDGFR beta) = biological target: T5, PDGFRB (PDGFR beta) (Homo sapiens, UniProt P09619)
T5 construct: purchased ThermoFisher (SelectScreen, Z'-LYTE)
Summary of the method: as §1

INSR = biological target: T6, INSR (Homo sapiens, UniProt P06213)
T6 construct: purchased ThermoFisher (SelectScreen, Z'-LYTE)
Summary of the method: as §1

ROS1 = biological target: T7, ROS1 (Homo sapiens, UniProt P08922)
T7 construct: purchased ThermoFisher (SelectScreen, Z'-LYTE)
Summary of the method: as §1

NTRK1 (TRKA) = biological target: T8, NTRK1 (TRKA) (Homo sapiens, UniProt P04629)
T8 construct: purchased ThermoFisher (SelectScreen, Z'-LYTE)
Summary of the method: as §1

ABL2 (Arg) = biological target: T9, ABL2 (Arg) (Homo sapiens, UniProt P42684)
T9 construct: purchased ThermoFisher (SelectScreen, Z'-LYTE)
Summary of the method: as §1

DYRK4 = biological target: T10, DYRK4 (Homo sapiens, UniProt Q9NR20)
T10 construct: purchased ThermoFisher (SelectScreen, Z'-LYTE)
T10 sequence (Q9NR20 1-520): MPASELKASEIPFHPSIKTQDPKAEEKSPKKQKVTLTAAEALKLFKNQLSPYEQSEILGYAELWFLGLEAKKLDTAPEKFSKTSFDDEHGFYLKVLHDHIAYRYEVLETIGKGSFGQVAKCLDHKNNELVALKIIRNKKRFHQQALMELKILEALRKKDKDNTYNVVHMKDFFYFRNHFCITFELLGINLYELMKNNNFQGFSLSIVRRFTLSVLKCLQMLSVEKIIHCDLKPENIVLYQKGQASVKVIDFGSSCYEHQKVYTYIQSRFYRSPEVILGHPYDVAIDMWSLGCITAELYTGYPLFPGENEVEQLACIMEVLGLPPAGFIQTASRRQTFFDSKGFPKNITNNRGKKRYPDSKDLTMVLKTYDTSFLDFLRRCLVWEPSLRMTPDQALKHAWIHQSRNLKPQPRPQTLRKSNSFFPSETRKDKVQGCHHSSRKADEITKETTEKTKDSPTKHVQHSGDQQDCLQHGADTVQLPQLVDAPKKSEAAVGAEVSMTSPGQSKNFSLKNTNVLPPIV
Summary of the method: as §1

T3 sequence (Q9UPE1 whole entry): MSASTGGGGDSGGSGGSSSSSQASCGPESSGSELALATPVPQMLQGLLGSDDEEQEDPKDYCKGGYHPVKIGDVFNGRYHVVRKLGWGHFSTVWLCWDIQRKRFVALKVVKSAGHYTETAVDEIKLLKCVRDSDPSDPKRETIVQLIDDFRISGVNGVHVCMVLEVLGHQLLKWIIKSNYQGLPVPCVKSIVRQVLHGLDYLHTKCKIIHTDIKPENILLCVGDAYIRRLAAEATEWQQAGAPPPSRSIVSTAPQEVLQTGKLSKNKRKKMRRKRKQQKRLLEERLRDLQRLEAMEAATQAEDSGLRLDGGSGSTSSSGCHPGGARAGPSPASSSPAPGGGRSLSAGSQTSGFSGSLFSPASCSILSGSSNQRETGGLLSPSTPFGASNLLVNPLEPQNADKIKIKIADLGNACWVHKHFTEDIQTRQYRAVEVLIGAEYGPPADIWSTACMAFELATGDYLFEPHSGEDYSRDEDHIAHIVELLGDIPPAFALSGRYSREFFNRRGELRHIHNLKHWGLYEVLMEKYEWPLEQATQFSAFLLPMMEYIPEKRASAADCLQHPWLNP
T7 sequence (P08922 28-2347): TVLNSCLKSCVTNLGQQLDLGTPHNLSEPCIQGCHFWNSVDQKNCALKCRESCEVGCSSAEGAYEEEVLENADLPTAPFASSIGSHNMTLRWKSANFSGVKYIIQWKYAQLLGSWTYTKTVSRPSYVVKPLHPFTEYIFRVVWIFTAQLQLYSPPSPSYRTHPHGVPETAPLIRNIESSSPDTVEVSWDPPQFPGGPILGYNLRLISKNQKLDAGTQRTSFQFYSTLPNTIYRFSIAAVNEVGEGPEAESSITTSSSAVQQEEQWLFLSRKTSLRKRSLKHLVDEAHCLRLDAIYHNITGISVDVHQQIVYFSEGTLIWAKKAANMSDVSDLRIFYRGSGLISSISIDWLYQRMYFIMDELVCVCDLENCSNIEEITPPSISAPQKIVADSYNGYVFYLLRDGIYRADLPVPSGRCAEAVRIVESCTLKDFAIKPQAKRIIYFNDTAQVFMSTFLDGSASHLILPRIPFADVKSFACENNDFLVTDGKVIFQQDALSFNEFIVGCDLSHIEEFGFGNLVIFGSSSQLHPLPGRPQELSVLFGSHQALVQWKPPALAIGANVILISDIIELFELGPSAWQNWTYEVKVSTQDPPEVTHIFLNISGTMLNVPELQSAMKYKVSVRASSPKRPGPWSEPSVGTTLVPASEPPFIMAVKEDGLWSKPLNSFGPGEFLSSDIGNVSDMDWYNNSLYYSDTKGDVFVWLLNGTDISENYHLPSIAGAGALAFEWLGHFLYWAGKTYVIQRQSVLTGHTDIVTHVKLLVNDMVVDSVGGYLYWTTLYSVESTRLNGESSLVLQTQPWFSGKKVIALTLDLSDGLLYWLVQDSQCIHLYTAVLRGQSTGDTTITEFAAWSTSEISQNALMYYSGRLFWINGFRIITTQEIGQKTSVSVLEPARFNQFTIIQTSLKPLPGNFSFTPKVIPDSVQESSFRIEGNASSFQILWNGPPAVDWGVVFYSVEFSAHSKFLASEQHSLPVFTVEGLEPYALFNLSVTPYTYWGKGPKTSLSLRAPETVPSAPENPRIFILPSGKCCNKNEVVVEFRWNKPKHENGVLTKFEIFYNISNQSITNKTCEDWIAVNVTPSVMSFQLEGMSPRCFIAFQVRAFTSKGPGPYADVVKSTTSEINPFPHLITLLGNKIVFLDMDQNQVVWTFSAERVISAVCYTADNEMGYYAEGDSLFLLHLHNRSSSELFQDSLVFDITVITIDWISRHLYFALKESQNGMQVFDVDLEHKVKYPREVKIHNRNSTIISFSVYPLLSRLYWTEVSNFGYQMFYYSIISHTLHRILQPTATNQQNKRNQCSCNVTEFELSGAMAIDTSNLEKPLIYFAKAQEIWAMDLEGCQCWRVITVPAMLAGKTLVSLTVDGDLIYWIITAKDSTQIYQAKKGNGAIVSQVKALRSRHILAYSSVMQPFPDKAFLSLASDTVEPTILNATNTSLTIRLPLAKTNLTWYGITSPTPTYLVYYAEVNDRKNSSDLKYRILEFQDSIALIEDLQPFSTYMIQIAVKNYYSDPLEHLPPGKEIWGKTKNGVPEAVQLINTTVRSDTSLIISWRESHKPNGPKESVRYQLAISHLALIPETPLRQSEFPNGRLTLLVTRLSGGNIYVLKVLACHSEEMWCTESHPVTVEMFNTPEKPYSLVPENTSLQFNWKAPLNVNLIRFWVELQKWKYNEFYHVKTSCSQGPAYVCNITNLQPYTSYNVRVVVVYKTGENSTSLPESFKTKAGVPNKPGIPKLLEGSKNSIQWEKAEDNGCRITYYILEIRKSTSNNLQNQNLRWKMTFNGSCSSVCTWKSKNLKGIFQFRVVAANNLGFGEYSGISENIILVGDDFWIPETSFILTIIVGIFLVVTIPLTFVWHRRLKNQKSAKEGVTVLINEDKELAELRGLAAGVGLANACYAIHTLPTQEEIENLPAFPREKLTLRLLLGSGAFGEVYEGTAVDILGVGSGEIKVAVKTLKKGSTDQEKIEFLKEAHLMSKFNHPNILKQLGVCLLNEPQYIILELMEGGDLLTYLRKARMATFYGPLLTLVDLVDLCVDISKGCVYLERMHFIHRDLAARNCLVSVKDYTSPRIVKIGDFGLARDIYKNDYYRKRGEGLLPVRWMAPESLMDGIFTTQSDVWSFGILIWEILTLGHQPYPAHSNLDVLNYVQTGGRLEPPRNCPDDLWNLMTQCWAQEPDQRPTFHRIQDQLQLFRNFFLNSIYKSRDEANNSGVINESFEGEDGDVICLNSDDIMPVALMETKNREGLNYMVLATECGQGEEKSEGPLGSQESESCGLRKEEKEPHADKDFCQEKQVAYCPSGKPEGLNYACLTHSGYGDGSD
T9 sequence (P42684 whole entry): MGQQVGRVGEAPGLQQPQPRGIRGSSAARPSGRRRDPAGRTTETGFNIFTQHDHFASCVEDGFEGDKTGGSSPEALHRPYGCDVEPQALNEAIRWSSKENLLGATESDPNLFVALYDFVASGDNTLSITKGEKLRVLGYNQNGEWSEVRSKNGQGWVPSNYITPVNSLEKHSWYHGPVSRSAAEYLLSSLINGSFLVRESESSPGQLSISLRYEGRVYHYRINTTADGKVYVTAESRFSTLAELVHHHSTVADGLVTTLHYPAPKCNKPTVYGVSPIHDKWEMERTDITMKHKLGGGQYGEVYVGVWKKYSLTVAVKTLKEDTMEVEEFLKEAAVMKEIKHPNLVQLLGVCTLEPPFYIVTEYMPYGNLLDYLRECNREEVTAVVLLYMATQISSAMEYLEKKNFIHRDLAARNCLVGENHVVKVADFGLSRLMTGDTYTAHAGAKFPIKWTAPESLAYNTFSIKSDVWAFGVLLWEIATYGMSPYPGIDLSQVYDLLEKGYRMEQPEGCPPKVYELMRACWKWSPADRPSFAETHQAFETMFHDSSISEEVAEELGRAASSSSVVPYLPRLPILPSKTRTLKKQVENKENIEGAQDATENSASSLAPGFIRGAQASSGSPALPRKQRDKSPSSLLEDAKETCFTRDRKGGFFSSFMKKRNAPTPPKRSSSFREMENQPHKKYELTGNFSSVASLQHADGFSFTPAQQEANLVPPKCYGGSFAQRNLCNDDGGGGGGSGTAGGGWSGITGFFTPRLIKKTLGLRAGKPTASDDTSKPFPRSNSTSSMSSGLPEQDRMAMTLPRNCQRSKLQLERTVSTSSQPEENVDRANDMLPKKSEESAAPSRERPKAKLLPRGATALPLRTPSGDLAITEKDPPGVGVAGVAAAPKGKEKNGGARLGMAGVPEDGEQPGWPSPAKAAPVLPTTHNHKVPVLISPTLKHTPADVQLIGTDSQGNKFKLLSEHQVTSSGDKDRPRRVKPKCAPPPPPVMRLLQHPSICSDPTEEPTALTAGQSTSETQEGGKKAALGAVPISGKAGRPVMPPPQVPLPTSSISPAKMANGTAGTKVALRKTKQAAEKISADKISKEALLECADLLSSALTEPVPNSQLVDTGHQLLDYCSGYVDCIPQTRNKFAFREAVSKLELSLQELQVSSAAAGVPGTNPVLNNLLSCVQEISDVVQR
T8 sequence (P04629 33-796): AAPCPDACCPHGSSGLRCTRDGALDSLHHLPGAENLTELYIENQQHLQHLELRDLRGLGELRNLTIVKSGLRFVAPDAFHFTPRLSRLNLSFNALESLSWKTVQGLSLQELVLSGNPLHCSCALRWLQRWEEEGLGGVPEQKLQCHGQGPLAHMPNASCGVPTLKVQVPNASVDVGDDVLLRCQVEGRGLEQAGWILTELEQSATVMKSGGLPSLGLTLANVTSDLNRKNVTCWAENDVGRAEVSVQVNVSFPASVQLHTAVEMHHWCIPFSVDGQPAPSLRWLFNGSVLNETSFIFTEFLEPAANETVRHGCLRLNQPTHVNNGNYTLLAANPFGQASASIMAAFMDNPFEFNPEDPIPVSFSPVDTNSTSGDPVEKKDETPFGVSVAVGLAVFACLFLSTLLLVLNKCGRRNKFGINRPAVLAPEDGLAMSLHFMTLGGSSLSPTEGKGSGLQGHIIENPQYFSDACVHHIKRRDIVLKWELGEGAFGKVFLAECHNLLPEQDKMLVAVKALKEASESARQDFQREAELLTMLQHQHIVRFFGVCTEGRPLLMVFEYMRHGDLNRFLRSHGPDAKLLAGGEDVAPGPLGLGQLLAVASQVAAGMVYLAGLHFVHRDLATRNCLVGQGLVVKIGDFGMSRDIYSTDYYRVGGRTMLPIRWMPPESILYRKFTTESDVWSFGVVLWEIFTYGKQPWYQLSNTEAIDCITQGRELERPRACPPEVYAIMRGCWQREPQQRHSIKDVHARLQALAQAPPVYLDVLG

Compound | inhibition at 10 µM (ACVR1B (ALK4)) | inhibition at 10 µM (MATK (HYL)) | inhibition at 10 µM (STK23 (MSSK1)) | inhibition at 10 µM (CHEK1 (CHK1)) | inhibition at 10 µM (PDGFRB (PDGFR beta)) | inhibition at 10 µM (INSR) | inhibition at 10 µM (ROS1) | inhibition at 10 µM (NTRK1 (TRKA)) | inhibition at 10 µM (ABL2 (Arg)) | inhibition at 10 µM (DYRK4) | ACVR1B (ALK4) % Inhibition (ACVR1B (ALK4); 10 µM compound, ATP Km app) | MATK (HYL) % Inhibition (MATK (HYL); 10 µM compound, ATP Km app) | STK23 (MSSK1) % Inhibition (STK23 (MSSK1); 10 µM compound, ATP Km app) | CHEK1 (CHK1) % Inhibition (CHEK1 (CHK1); 10 µM compound, ATP Km app) | PDGFRB (PDGFR beta) % Inhibition (PDGFRB (PDGFR beta); 10 µM compound, ATP Km app) | INSR % Inhibition (INSR; 10 µM compound, ATP Km app) | ROS1 % Inhibition (ROS1; 10 µM compound, ATP Km app) | NTRK1 (TRKA) % Inhibition (NTRK1 (TRKA); 10 µM compound, ATP Km app) | ABL2 (Arg) % Inhibition (ABL2 (Arg); 10 µM compound, ATP Km app) | DYRK4 % Inhibition (DYRK4; 10 µM compound, ATP Km app)
Cc1ncc(-c2nc(Nc3ccc(C(=O)NCCN4CCCCC4)cc3)ncc2F)n1C(C)C [Compound 3] | 52% | 0.522% | 15% | 87% | 87% | 69% | 99% | 76% | 75% | 23% | – | – | – | – | – | – | – | – | – | –
Cc1cc(Nc2nc(N)nn2C(=O)NC(C)C)ccc1Cl [Compound 5] | -8% | -1.63% | -2.48% | 14% | 10% | 5.44% | 57% | 36% | 52% | 5% | – | – | – | – | – | – | – | – | – | –
XMD8-92 [Compound 2, reference compound] | – | – | – | – | – | – | – | – | – | – | -2.75% | 2.46% | 15% | 8% | 7% | 4% | 69% | 43% | 21% | 1.2%
